Source: PMC5667507, “A novel ^18F-labelled high affinity agent for PET imaging of the translocator protein” (Chemical Science, 2015)

Experiments:
TSPO [1] = molecular target: T1, TSPO (Mus musculus, UniProt P50637); assay: In vitro autoradiography, brain sections of G7 orthotopic mouse model of human glioblastoma; format: binding; conditions: contralateral region; 3 nM tracer, 10 µM PK11195
T1 construct: The brain from a mouse bearing an intracranial G7 tumour was used; from tissue; host or cells: 20 µm coronal cryosections of CD1 nude mouse brain with an intracranial G7 human glioblastoma xenograft
T1 sequence (P50637 whole entry): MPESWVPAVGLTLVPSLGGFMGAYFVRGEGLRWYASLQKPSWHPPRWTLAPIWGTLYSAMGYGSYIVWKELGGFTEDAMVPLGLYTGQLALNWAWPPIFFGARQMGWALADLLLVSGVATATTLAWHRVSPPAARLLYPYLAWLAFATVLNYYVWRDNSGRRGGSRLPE
Source text: (§1) An initial investigation of the potential of [^18F]-AB5186 6 to bind to TSPO in brain involved in vitro autoradiography using a G7 orthotopic mouse model of human glioblastoma.[25] Autoradiography allows the distribution of a radiolabelled compound to be visualised in intact biological tissue sections.[26] […] Displacement of [^18F]-AB5186 6 by the TSPO ligand PK11195 confirms the in vitro specificity of the tracer for TSPO in brain tissue.
(§2) The fraction containing 18F-AB5186 6 was concentrated in vacuo and then reconstituted in 2 mL of a 10% ethanol/0.9% saline solution. Passing the sample through a pre-treated 13 mm 0.2 µm filter then completed formulation of the radiotracer. The identity of the radiolabelled product was confirmed by co-injection with a cold sample of AB5186 6. Quality control was performed by analytical HPLC, using a Phenomenex Synergi 4 µm Hydro-RP 80A (150 × 4.60 mm) column and the mobile phase described above for the semi-prep HPLC purification step. Radiochemical purity was determined by measuring the area under the peaks on the chromatogram, and specific activity was calculated using a standard curve.
(§3) 8. Radio-HPLC chromatogram of [18F]-AB5186 (6) after purification
(§4) CD1 nude mice had […] of either G7 or U87MG-Luc2 cultured cells implanted intracranially into the caudate nucleus using standard stereotactic procedures. Successful implantation of U87MG-Luc2 tumours was confirmed by performing IVIS® scans approximately two weeks following the procedure. Animals were used for ex vivo autoradiography and PET imaging studies 21–30 days post tumour implantation. Prior to any procedure mice were anaesthetised using inhaled isoflurane (in medical oxygen; induction 5.0%; maintenance 2.0–3.0%). Body temperature was maintained using a heating pad.
(§5) 10. In vitro Autoradiography5 Methodology
(§6) The brain from a mouse bearing an intracranial G7 tumour was used. […]
(§7) temperature. Non-specific binding was determined in adjacent sections by incubating with [18F]- AB5186 6 in the presence of 10 µM PK11195 (Tocris, UK). […]

TSPO [2] = assay: as above; format: binding
Source text: as §1, §2, §3, §4, §5, §6, §7

TSPO [3] = assay: Ex vivo autoradiography, U87MG-Luc2 orthotopic glioma bearing mice; format: in vivo, mouse
Experimental: To investigate the behavior of [^18F]-AB5186 6 in vivo, ex vivo autoradiography was performed using mice bearing a U87MG-Luc2 orthotopic model of human glioblastoma. Animals were pre-treated with either vehicle (n = 4) or 1 mg kg^–1 unlabelled PK11195 (n = 4) administered intravenously 10 min prior to [^18F]-AB5186 6 intravenous injection. Animals were killed and brains were removed 20 min after the radiotracer was given and frozen. Cryostat sections were then used to generate autoradiograms. […] The non-tumour bearing contralateral side of the brain lacked proliferating cells and minimal TSPO expression and immunolabelled microglia were visible (data not shown). Under normal circumstances microglia express low levels of TSPO in the brain. […]
as §7
Following this, the tissues were washed with 0.1% Tween® 20 in TBS (2 × 5 min) and a secondary one hour incubation at room temperature was performed using Dako horseradish-peroxidase labelled anti-mouse or anti-rabbit polymers. The sections were once again washed using 0.1% Tween® 20 in TBS (2 × 5 min) and the presence of antibody was detected using the 3,3’- diaminobenzidine chromagen solution diluted in Dako DAB+ substrate buffer. […]

CCN(CC)C(=O)c1nc2ccccc2c(-c2ccccc2)c1C[18F] [[^18F]-AB5186 6]
displacement of tracer binding by excess unlabelled PK11195 (TSPO [1]): 23% | total binding, tumour tissue compared to contralateral side (TSPO [2]; in vitro autoradiograms, G7 xenograft): markedly increased | displacement of tracer binding by excess unlabelled PK11195 (TSPO [2]; tumour tissue, 3 nM tracer, 10 µM PK11195): 76% | binding (tumour to contralateral optical density ratio) after PK11195 blockade (TSPO [3]; 1 mg kg^-1 unlabelled PK11195 i.v. 10 min before tracer, P = 0.0002): significantly reduced | total binding, tumour tissue compared to contralateral region (TSPO [3]; ex vivo autoradiography, vehicle pre-treatment, brains removed 20 min after tracer i.v.): substantially higher
